Measurements taken from patent US11780841B2, “3,6-methano-1H-pyrrolo[3,2-b]pyridine and 3,6-methano-1H-pyrrolo[3,2-c]pyridine compounds and medicaments using same” (priority 2018, dated 2023).

These compounds were tested on recombinant rabies virus 1088 strain expressing Gaussia Luciferase (GLuc) (1088/GLuc). Conditions: read-out: Anti-rabies activity.
Type: cell-based

Row | SMILES | IC50
1 | CCCCCCNC(=O)[C@@]12C[C@@H]3CN(Cc4ccccc4)[C@@H]([C@@H]3CN1)[C@H]2Cc1ccc(O)cc1 [IF-692] | < 5 µM
2 | CC(C)C[C@@H]1[C@@H]2[C@@H]3CN[C@@]1(C(=O)NCCC(N)=O)C[C@@H]3CN2CCc1ccccc1 [IF-699] | 10 to 30 µM
3 | CC(C)CCN1C[C@H]2C[C@]3(C(=O)NCc4cccc5ccccc45)NC[C@H]2[C@H]1[C@H]3CC(C)C [IF-705] | < 5 µM
4 | CC(C)CCN1C[C@H]2C[C@]3(C(=O)NCc4cccc5ccccc45)NC[C@H]2[C@H]1[C@H]3Cc1ccc(O)cc1 [IF-706] | < 5 µM
5 | CC(C)CCNC(=O)[C@@]12C[C@@H]3CN(CCc4ccccc4)[C@@H]([C@@H]3CN1)[C@H]2Cc1ccc(O)cc1 [IF-707] | < 5 µM
6 | O=C(NCCc1ccccc1)[C@@]12C[C@@H]3CN(Cc4cccc5ccccc45)[C@@H]([C@@H]3CN1)[C@H]2Cc1ccc(O)cc1 [IF-708] | < 5 µM
7 | CC(C)CCNC(=O)[C@@]12C[C@@H]3CN(CC4CCCCC4)[C@@H]([C@@H]3CN1)[C@H]2Cc1ccc(O)cc1 [IF-709] | 10 to 30 µM
8 | O=C(NCCc1ccccc1)[C@@]12C[C@@H]3CN(CC4CCCCC4)[C@@H]([C@@H]3CN1)[C@H]2Cc1ccccc1 [IF-710] | < 5 µM
9 | CC(C)C[C@@H]1[C@@H]2[C@@H]3CN[C@@]1(C(=O)NCCc1ccccc1)C[C@@H]3CN2CC1CCCCC1 [IF-711] | 10 to 30 µM
10 | CC(C)C[C@@H]1[C@@H]2[C@@H]3CN[C@@]1(C(=O)NCCc1ccccc1)C[C@@H]3CN2Cc1ccc(F)cc1 [IF-714] | < 5 µM
11 | O=C(NCCc1ccccc1)[C@@]12C[C@@H]3CN(Cc4ccc(F)cc4)[C@@H]([C@@H]3CN1)[C@H]2Cc1ccc(O)cc1 [IF-715] | < 5 µM
12 | CC(C)CC[C@@H]1[C@@H]2[C@@H]3CN[C@@]1(C(=O)NCCc1ccccc1)C[C@@H]3CN2CC1CCCCC1 [IF-717] | < 5 µM
13 | O=C(NCCc1ccccc1)[C@@]12C[C@@H]3CN(CC4CCCCC4)[C@@H]([C@@H]3CN1)[C@H]2Cc1cccc2ccccc12 [IF-718] | < 5 µM
14 | CC(C)C[C@@H]1[C@@H]2[C@@H]3CN[C@@]1(C(=O)NCCc1ccccc1)C[C@@H]3CN2Cc1ccccc1 [IF-721] | < 5 µM
15 | O=C(NCCc1ccccc1)[C@@]12C[C@@H]3CN(Cc4ccccc4)[C@@H]([C@@H]3CN1)[C@H]2Cc1ccc(O)cc1 [IF-722] | < 5 µM
16 | CC(C)CC[C@@H]1[C@@H]2[C@@H]3CN[C@@]1(C(=O)NCCc1ccccc1)C[C@@H]3CN2Cc1ccccc1 [IF-723] | 10 to 30 µM
17 | CC(C)C[C@@H]1[C@@H]2[C@@H]3CN[C@@]1(C(=O)NCCc1ccccc1)C[C@@H]3CN2CC(C)C [IF-725] | 10 to 30 µM
18 | CC(C)C[C@@H]1[C@@H]2[C@@H]3CN[C@@]1(C(=O)NCc1cccc4ccccc14)C[C@@H]3CN2CC(C)C [IF-726] | 10 to 30 µM
19 | CC(C)CC[C@@H]1[C@@H]2[C@@H]3CN[C@@]1(C(=O)NCCc1ccccc1)C[C@@H]3CN2CC(C)C [IF-727] | < 5 µM
20 | CC(C)CCN1C[C@H]2C[C@]3(C(=O)NCc4ccccc4)NC[C@H]2[C@H]1[C@H]3CC(C)C [IF-733] | < 5 µM
21 | CC(C)CCN1C[C@H]2C[C@]3(C(=O)NCC(C)C)NC[C@H]2[C@H]1[C@H]3Cc1cccc2ccccc12 [IF-734] | < 5 µM
22 | CC(C)CCN1C[C@H]2C[C@]3(C(=O)NCC(C)C)NC[C@H]2[C@H]1[C@H]3Cc1ccccc1 [IF-735] | 10 to 30 µM
23 | CC(C)CNC(=O)[C@@]12C[C@@H]3CN(CCc4ccccc4)[C@@H]([C@@H]3CN1)[C@H]2CC(C)C [IF-738] | 10 to 30 µM

Row | SMILES | IC50
24 | CC(C)CNC(=O)[C@@]12C[C@@H]3CN(Cc4cccc5ccccc45)[C@@H]([C@@H]3CN1)[C@H]2CC(C)C [IF-739] | < 5 µM
25 | CC(C)CC[C@@H]1[C@@H]2[C@@H]3CN[C@@]1(C(=O)NCc1ccccc1)C[C@@H]3CN2CC1CCCCC1 [IF-740] | 10 to 30 µM
26 | CC(C)CNC(=O)[C@@]12C[C@@H]3CN(CC4CCCCC4)[C@@H]([C@@H]3CN1)[C@H]2CC(C)C [IF-742] | 10 to 30 µM
27 | CC(C)CC[C@@H]1[C@@H]2[C@@H]3CN[C@@]1(C(=O)NCc1ccccc1)C[C@@H]3CN2Cc1ccc(F)cc1 [IF-743] | 10 to 30 µM
28 | CC(C)CCNC(=O)[C@@]12C[C@@H]3CN(CCc4ccccc4)[C@@H]([C@@H]3CN1)[C@H]2Cc1ccccc1 [IF-744] | < 5 µM
29 | CC(C)CN1C[C@H]2C[C@]3(C(=O)NCc4ccccc4)NC[C@H]2[C@H]1[C@H]3Cc1cccc2ccccc12 [IF-753] | 10 to 30 µM
30 | O=C(NCc1cccc2ccccc12)[C@@]12C[C@@H]3CN(CCO)[C@@H]([C@@H]3CN1)[C@H]2Cc1ccccc1 [IF-758] | < 5 µM
31 | CC(C)CN1C[C@H]2C[C@]3(C(=O)NCc4cccc5ccccc45)NC[C@H]2[C@H]1[C@H]3Cc1cccc2ccccc12 [IF-778] | < 5 µM
32 | O=C(NCc1cccc2ccccc12)[C@@]12C[C@@H]3CN(Cc4ccc(O)cc4)[C@@H]([C@@H]3CN1)[C@H]2Cc1cccc2ccccc12 [IF-779] | 10 to 30 µM
33 | CC(C)NC(=O)[C@@]12C[C@@H]3CN(Cc4cccc5ccccc45)[C@@H]([C@@H]3CN1)[C@H]2CCc1ccccc1 [IF-789] | 10 to 30 µM
34 | O=C(NCc1cccc2ccccc12)[C@@]12C[C@@H]3CN(Cc4ccccc4)[C@@H]([C@@H]3CN1)[C@H]2Cc1ccccc1 [IF-805] | 10 to 30 µM
35 | CC(C)C[C@@H]1[C@@H]2[C@@H]3CN[C@@]1(C(=O)NCc1ccc(F)cc1)C[C@@H]3CN2Cc1ccccc1 [IF-807] | < 5 µM
36 | CC(C)CN1C[C@H]2C[C@]3(C(=O)NCc4ccc(F)cc4)NC[C@H]2[C@H]1[C@H]3Cc1ccccc1 [IF-815] | < 5 µM
37 | CC(C)CCN1C[C@H]2C[C@]3(C(=O)NCCC(=O)O)NC[C@H]2[C@H]1[C@H]3CCc1ccccc1 [IF-830] | 10 to 30 µM
38 | CC(C)C[C@@H]1[C@@H]2[C@@H]3CN[C@@]1(C(=O)NCc1cccc4ccccc14)C[C@@H]3CN2Cc1ccccc1 [IF-837] | 5 to 10 µM
39 | CC(C)C[C@@H]1[C@@H]2[C@@H]3CN[C@@]1(C(=O)NCc1ccc(C(F)(F)F)cc1)C[C@@H]3CN2Cc1ccccc1 [IF-838] | 10 to 30 µM
40 | CC(C)C[C@@H]1[C@@H]2[C@@H]3CN[C@@]1(C(=O)NCc1ccccc1)C[C@@H]3CN2Cc1ccc(Cl)cc1 [IF-839] | 5 to 10 µM
41 | CC(C)C[C@@H]1[C@@H]2[C@@H]3CN[C@@]1(C(=O)NCc1ccccc1)C[C@@H]3CN2Cc1cccc(Cl)c1 [IF-840] | 5 to 10 µM
42 | COc1ccc(CN2C[C@H]3C[C@]4(C(=O)NCc5ccccc5)NC[C@H]3[C@H]2[C@H]4CC(C)C)cc1 [IF-841] | 5 to 10 µM
43 | Cc1ccc(CN2C[C@H]3C[C@]4(C(=O)NCc5ccccc5)NC[C@H]3[C@H]2[C@H]4CC(C)C)cc1 [IF-842] | < 5 µM
44 | CC(C)CCNC(=O)[C@@]12C[C@@H]3CN(CC(C)C)[C@@H]([C@@H]3CN1)[C@H]2Cc1ccccc1 [IF-845] | 10 to 30 µM
45 | CC(C)C[C@@H]1[C@@H]2[C@@H]3CN[C@@]1(C(=O)NCc1ccc(Cl)cc1)C[C@@H]3CN2CC(C)C [IF-846] | 10 to 30 µM
46 | CC(C)C[C@@H]1[C@@H]2[C@@H]3CN[C@@]1(C(=O)NCc1ccccc1)C[C@@H]3CN2Cc1ccc(N(C)C)cc1 [IF-848] | 5 to 10 µM

Row | SMILES | IC50
47 | CC(C)C[C@@H]1[C@@H]2[C@@H]3CN[C@@]1(C(=O)NCc1ccccc1)C[C@@H]3CN2Cc1ccc(C(C)(C)C)cc1 [IF-849] | 5 to 10 µM
48 | CC(C)CC[C@@H]1[C@@H]2[C@@H]3CN[C@@]1(C(=O)NCc1ccccc1)C[C@@H]3CN2CC(C)C [IF-850] | 5 to 10 µM
49 | CC(C)CCN1C[C@H]2C[C@]3(C(=O)NCc4ccccc4)NC[C@H]2[C@H]1[C@H]3CC(C)C [IF-851] | 10 to 30 µM
50 | CCOc1ccc(CN2C[C@H]3C[C@]4(C(=O)NCc5ccccc5)NC[C@H]3[C@H]2[C@H]4CC(C)C)cc1 [IF-853] | 5 to 10 µM
51 | CC(C)C[C@@H]1[C@@H]2[C@@H]3CN[C@@]1(C(=O)NCc1ccc4ccccc4c1)C[C@@H]3CN2Cc1ccccc1 [IF-854] | 5 to 10 µM
52 | CCN1C[C@@H]2[C@H]3CN(Cc4ccc(C)cc4)[C@@H]2[C@@H](CC(C)C)[C@]1(C(=O)NCc1ccccc1)C3 [IF-855] | 5 to 10 µM
53 | Cc1ccc(CN2C[C@H]3C[C@@]4(C(=O)NCc5ccccc5)[C@H](CC(C)C)[C@@H]2[C@@H]3CN4CC(C)C)cc1 [IF-856] | < 5 µM
54 | Cc1ccc(CN2C[C@H]3C[C@@]4(C(=O)NCc5ccccc5)[C@H](CC(C)C)[C@@H]2[C@@H]3CN4C(=O)Cc2ccccc2)cc1 [IF-859] | 5 to 10 µM
55 | COC(=O)N1C[C@@H]2[C@H]3CN(Cc4ccc(C)cc4)[C@@H]2[C@@H](CC(C)C)[C@]1(C(=O)NCc1ccccc1)C3 [IF-860] | 10 to 30 µM
56 | Cc1ccc(CN2C[C@H]3C[C@@]4(C(=O)NCc5ccccc5)[C@H](CC(C)C)[C@@H]2[C@@H]3CN4C(=O)OCC(C)C)cc1 [IF-861] | 5 to 10 µM
57 | Cc1ccc(CN2C[C@H]3C[C@@]4(C(=O)NCc5ccccc5)[C@H](CC(C)C)[C@@H]2[C@@H]3CN4C(=O)OCc2ccccc2)cc1 [IF-862] | 5 to 10 µM
58 | Cc1ccc(CN2C[C@H]3C[C@@]4(C(=O)NCc5ccccc5)[C@H](CC(C)C)[C@@H]2[C@@H]3CN4C(=O)NCc2ccccc2)cc1 [IF-864] | 10 to 30 µM
59 | CC(C)C[C@@H]1[C@@H]2[C@@H]3CN[C@@]1(C(=O)NCc1cccc(O)c1)C[C@@H]3CN2Cc1ccc(N(C)C)cc1 [IF-866] | 10 to 30 µM
60 | CC(C)C[C@@H]1[C@@H]2[C@@H]3CN[C@@]1(C(=O)NCc1ccc(O)cc1)C[C@@H]3CN2Cc1ccc(N(C)C)cc1 [IF-867] | 10 to 30 µM
61 | CC(C)CC1C2C=NC3(C(=O)NCc4ccccc4)C(C2)CN(Cc2ccc(Cl)cc2)C13 (centres unmarked) [IIB-83] | < 5 µM
62 | CC(C)CC1C2C=NC3(C(=O)NCc4ccccc4)C(C2)CN(Cc2cccc(Cl)c2)C13 (centres unmarked) [IIB-84] | < 5 µM
63 | COc1ccc(CN2CC3CC4C=NC3(C(=O)NCc3ccccc3)C2C4CC(C)C)cc1 (centres unmarked) [IIB-85] | 5 to 10 µM
64 | Cc1ccc(CN2CC3CC4C=NC3(C(=O)NCc3ccccc3)C2C4CC(C)C)cc1 (centres unmarked) [IIB-86] | 5 to 10 µM
65 | CC(C)CC1C2C=NC3(C(=O)NCc4ccccc4)C(C2)CN(Cc2ccc(N(C)C)cc2)C13 (centres unmarked) [IIB-94] | 5 to 10 µM
66 | CC(C)CC1C2C=NC3(C(=O)NCc4ccccc4)C(C2)CN(Cc2ccc(C(C)(C)C)cc2)C13 (centres unmarked) [IIB-95] | 5 to 10 µM
67 | CC(C)CC1C2C=NC3(C(=O)NCc4ccccc4)C(C2)CN(Cc2ccc(OC(F)(F)F)cc2)C13 (centres unmarked) [IIB-96] | 5 to 10 µM
68 | CCOc1ccc(CN2CC3CC4C=NC3(C(=O)NCc3ccccc3)C2C4CC(C)C)cc1 (centres unmarked) [IIB-97] | 10 to 30 µM
